The text below walks through data of patent US20050119272A1, “Use of phosphodiesterase antagonists to treat insulin resistance” (DiaMedica Inc., priority 2002, published 2005).

The test system of one assay is cats. Description: Development of insulin resistance in cats after intraportal muscarinic antagonists. Format: in vivo, cat. The text has this: To avoid the complexity of the reaction to hypoglycemia, the rapid insulin sensitivity test (RIST) was employed (Lautt et al., Can. J. Physiol. Pharmacol. 76:1080 (1998)) wherein a euglycemic clamp was used following the administration of insulin and the response was quantitated as the amount of glucose required to be infused over the test period in order to hold arterial blood glucose levels constant.

In a further assay the test system is atropine-treated rats. The experiment in a line: Rapid insulin sensitivity test (RIST) in the atropine model of 75% HDIR in rats. Format: in vivo, rat. The method, then:
Male Sprague Dawley rats (250-300 g) were allowed free access to water and normal rodent food for 1 week prior to all studies. Rats were fasted for 8 hours overnight and fed for 2 hours before the start of study. Rats were anesthetized with pentobarbital-sodium (65 mg/ml, ip injection, 0.1 ml/100 g body weight). Animals were placed on a heated thermostatically controlled surgical table to maintain body temperature during surgery and the experimental procedure. An extra-corporeal arterial-venous shunt (the loop) was established between the right femoral artery and right femoral vein, according to a published, standard operating procedure developed in our laboratory (Xie et al., 1996). The loop allows for regular blood sampling of arterial blood throughout the experiment as well as infusion of intravenous drugs and monitoring of arterial blood pressure. […] A laparotomy was performed and an indwelling portal venous catheter was inserted using a portal vein puncture technique. The portal catheter was used to administer the phosphodiesterase inhibitor directly to the liver. […] At this point, blood samples (25 μl) were taken at regular intervals from the loop and analyzed for glucose concentration. […] Glucose levels were monitored every 2 minutes during and after the infusion of insulin. […]

Regarding `COc1ccccc1CNCCCCCCNCCCCCCCCNCCCCCCNCc1ccccc1OC` [methoctramine], the “dose required to produce a full insulin resistance” value with cats (administered into the portal vein) is given as 10^−6 μmol/kg.

Take `CN1CCN(CC(=O)N2c3ccccc3C(=O)Nc3cccnc32)CC1` [pirenzepine]: the “dose achieving a similar degree of insulin resistance” value in the assay on cats was 10^−7 mmol/kg.

Regarding `CCCOc1ccccc1-c1nc2nn[nH]c2c(=O)[nH]1` [zaprinast], the RIST index with atropine-treated rats (after zaprinast 0.1 mg/kg ipv, following atropine-induced 75% HDIR, n=8) is 157.4 ± 6.1 mg/kg. Further, the “reversal of HDIR produced by atropine” value with atropine-treated rats (zaprinast 0.1 mg/kg ipv, rats) was “able to reverse the HDIR produced by atropine”.
